Reference: publication PMC10762035, “Molecular basis of human trace amine-associated receptor 1 activation” (Nature Communications, 2024)
Positions count from the first letter of the chain named. “And” between values parts separate entries of the source, which are not always exact repeats. Equal entries are not always repeated. Where two headings read alike, the source gives them in different places.

Experiments:
hTA1 C88S = target: T1, hTA1 C88S (Homo sapiens, UniProt Q96RJ0, C88S); assay: GloSensor cAMP accumulation assay, C88S mutant; format: cell-based; conditions: C88S
T1 construct: expressed in transfected cells; host or cells: HEK293T
T1 sequence (Q96RJ0 1-339 C88S): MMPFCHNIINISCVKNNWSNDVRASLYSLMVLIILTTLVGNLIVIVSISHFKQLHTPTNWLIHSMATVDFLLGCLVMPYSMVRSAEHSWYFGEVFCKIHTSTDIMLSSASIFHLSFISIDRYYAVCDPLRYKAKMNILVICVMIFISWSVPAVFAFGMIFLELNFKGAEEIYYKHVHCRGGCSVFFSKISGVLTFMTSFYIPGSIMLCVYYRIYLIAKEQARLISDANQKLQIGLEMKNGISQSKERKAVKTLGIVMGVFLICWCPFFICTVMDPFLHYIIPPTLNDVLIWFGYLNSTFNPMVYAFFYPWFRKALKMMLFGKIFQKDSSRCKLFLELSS

hTA1 I290Y = target: T2, hTA1 I290Y (Homo sapiens, UniProt Q96RJ0, I290Y); assay: GloSensor cAMP accumulation assay, I290Y mutant; format: cell-based; conditions: for cAMP accumulation response, normalized (concentration-response source data, single replicate values): hTA1 I290Y (N=3), log[Compound];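 as to cAMP accumulation response, normalized (concentration-response source data, single replicate values): normalized to the maximum response of β-PEA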
T2 construct: expressed in transfected cells; host or cells: HEK293T
T2 sequence (Q96RJ0 1-339 I290Y): T1 sequence (Q96RJ0 1-339 C88S) with S88C, I290Y

hTA1 T271A = target: T3, hTA1 T271A (Homo sapiens, UniProt Q96RJ0, T271A); assay: GloSensor cAMP accumulation assay, T271A mutant; format: cell-based
T3 construct: expressed in transfected cells; host or cells: HEK293T
T3 sequence (Q96RJ0 1-339 T271A): T1 sequence (Q96RJ0 1-339 C88S) with S88C, T271A

hTA1 C96S = target: T4, hTA1 C96S (Homo sapiens, UniProt Q96RJ0, C96S); assay: GloSensor cAMP accumulation assay, C96S mutant; format: cell-based; conditions: log[Compound]
T4 construct: expressed in transfected cells; host or cells: HEK293T
T4 sequence (Q96RJ0 1-339 C96S): T1 sequence (Q96RJ0 1-339 C88S) with S88C, C96S

hTA1 T194A = target: T5, hTA1 T194A (Homo sapiens, UniProt Q96RJ0, T194A); assay: GloSensor cAMP accumulation assay, T194A mutant; conditions: for cAMP accumulation response, individual replicate values of the concentration-response curve: hTA1 T194A, log[Agonist], Supplementary Figure 5 source data
T5 sequence (Q96RJ0 1-339 T194A): T1 sequence (Q96RJ0 1-339 C88S) with S88C, T194A

## NCCc1ccc(O)cc1 [TYR, tyramine]
hTA1 C88S; Mean of fit per experiment
  Emax values: 100.851
hTA1 C88S; Mean of fit per experiment, read-out: Emax values
  Emax: 118%
hTA1 C88S; Mean of fit per experiment, read-out: pEC50 values (converted)
  EC50: 442 nM and 317 nM
hTA1 C88S; n=2, read-out: EC50
  EC50: 375 nM
hTA1 C88S; n=2, read-out: Span ± SEM (Emax normalized to β-PEA)
  Emax: 109 ± 8.4%
hTA1 I290Y; I290Y, read-out: EC50
  EC50: 1960 nM
hTA1 I290Y; I290Y, read-out: Span ± SEM (Emax normalized to β-PEA)
  Emax: 99 ± 3.2%
hTA1 I290Y; I290Y, single experiments (3 replicates each), read-out: pEC50 values, Mean (converted)
  EC50: 2120 nM and 1010 nM and 3550 nM
hTA1 I290Y; I290Y, single experiments (3 replicates each), β-PEA = 100
  Emax values, Mean: 103.315 and 92.7474 and 100.92
hTA1 I290Y; M = -5
  cAMP accumulation response, normalized (concentration-response source data, single replicate values): 70.7589 and 112.926 and 76.6069 and 77.3087 and 89.0347 and 68.1478 and 71.4902 and 86.1539 and 63.5944
hTA1 I290Y; M = -5.522
  cAMP accumulation response, normalized (concentration-response source data, single replicate values): 50.1368 and 56.2927 and 58.1394 and 72.545 (2×) and 68.5142 and 46.6748 and 35.395 and 37.651
hTA1 I290Y; M = -6
  cAMP accumulation response, normalized (concentration-response source data, single replicate values): 26.4369 and 46.4433 and 36.2862 and 39.5657 and 32.9698 and 41.0314 and 25.2433 and 19.6034 and 27.4992
hTA1 I290Y; M = -6.522
  cAMP accumulation response, normalized (concentration-response source data, single replicate values): 10.4317 and 18.1265 and 13.2018 and 24.1753 and 16.4801 and 23.4424 and 9.4516 (2×) and 6.068
hTA1 I290Y; M = -7
  cAMP accumulation response, normalized (concentration-response source data, single replicate values): 2.737 and 6.123 and 3.045 and 3.288 (2×) and 0.7233 and 1.556 and -0.7002 and 0.4278
hTA1 I290Y; M = -7.522
  cAMP accumulation response, normalized (concentration-response source data, single replicate values): 0.8902 and 0.2746 and -1.88 and -4.407 and -4.773 and -3.674 and -4.0841 and -1.828 and -2.956
hTA1 I290Y; M = -8
  cAMP accumulation response, normalized (concentration-response source data, single replicate values): -1.264 and 0.8902 and -0.6488 and -2.575 and -3.307 (2×) and -4.0841 (2×) and -5.212
hTA1 I290Y; M = -8.522
  cAMP accumulation response, normalized (concentration-response source data, single replicate values): -1.264 and -0.0332 and 0.5824 and -4.407 and -3.674 and -2.956 (2×) and -4.0841
hTA1 I290Y; M = -9
  cAMP accumulation response, normalized (concentration-response source data, single replicate values): -3.7267 and 0.8902 and -1.88 and 1.823 and 4.021 and -3.674 and -1.828 and -2.956 and -4.0841
hTA1 I290Y; M = -9.522
  cAMP accumulation response, normalized (concentration-response source data, single replicate values): -3.419 and -0.6488 and -1.88 and -6.239 and -4.407 and -2.208 and -2.956 (2×) and -5.212
hTA1 I290Y; M = -10
  cAMP accumulation response, normalized (concentration-response source data, single replicate values): -1.88 and -0.9566 and -1.572 and -6.605 and -4.407 and -2.956 (2×) and -1.828
hTA1 I290Y; M = -10.522
  cAMP accumulation response, normalized (concentration-response source data, single replicate values): -1.572 (2×) and 0.5824
hTA1 T271A; T271A
  reduction in potency vs wild type: about 10 fold
hTA1 T271A; T271A mutant, Figure 5B, each row one independent experiment (3 replicates), read-out: pEC50 values, Mean (converted)
  EC50: 7630 nM and 3080 nM
hTA1 T271A; T271A mutant, Figure 5B, β-PEA = 100, each row one independent experiment (3 replicates)
  Emax values, Mean: 138.16 and 109.079
hTA1 T271A; T271A, n=2, read-out: EC50
  EC50: 4850 nM
hTA1 T271A; T271A, n=2, read-out: Span ± SEM (Emax normalized to β-PEA)
  Emax: 124%
hTA1 C96S; C96S, M = -5, single replicates (N=2)
  Normalized Luminescence Counts: 1.4045 and 3.382 and -0.5726 and -0.7614 and 6.985 and 24.4145
hTA1 C96S; C96S, M = -5.522, single replicates (N=2)
  Normalized Luminescence Counts: 0.08646 and 2.064 and -0.5726 and 5.048 (2×) and 10.8582
hTA1 C96S; C96S, M = -6, single replicates (N=2)
  Normalized Luminescence Counts: -1.891 and 1.4045 and -2.55 and -0.7614 and 5.048 and -8.508
hTA1 C96S; C96S, M = -6.522, single replicates (N=2)
  Normalized Luminescence Counts: -0.5726 and -3.209 and -2.55 and -6.571 (2×) and -2.698
hTA1 C96S; C96S, M = -7, single replicates (N=2)
  Normalized Luminescence Counts: 0.08646 and 0.7455 and -2.55 and -0.7614 and -4.6346 and -2.698
hTA1 C96S; C96S, M = -7.522, single replicates (N=2)
  Normalized Luminescence Counts: -1.232 and -0.5726 and 0.7455 and 1.175 and -2.698 and 3.112
hTA1 C96S; C96S, M = -8, single replicates (N=2)
  Normalized Luminescence Counts: 2.064 and 0.7455 and -0.5726 and 3.112 and 24.4145 and -12.381
hTA1 C96S; C96S, M = -8.522, single replicates (N=2)
  Normalized Luminescence Counts: -1.891 and 0.08646 and -1.232 and 6.985 and 10.8582 and 12.7948
hTA1 C96S; C96S, M = -9, single replicates (N=2)
  Normalized Luminescence Counts: -1.232 and -0.5726 and -1.891 and 1.175 and -4.6346 and 6.985
hTA1 C96S; C96S, M = -9.522, single replicates (N=2)
  Normalized Luminescence Counts: -3.209 and -0.5726 and -3.868 and 8.922 and 55.4002 and 6.985
hTA1 C96S; C96S, M = -10, single replicates (N=2)
  Normalized Luminescence Counts: -1.232 and 0.08646 (2×) and 5.048 and 3.112 and 12.7948
hTA1 C96S; C96S, M = -10.522, single replicates (N=2)
  Normalized Luminescence Counts: -0.5726 and 2.064 and 0.08646 and 6.985 and -4.6346 and -0.7614
hTA1 C96S; C96S, M = -11, single replicates (N=2)
  Normalized Luminescence Counts: 0.7455 and 2.723 and -1.232 and 3.112 (2×) and 10.8582
hTA1 C96S; C96S, M = -11.522, single replicates (N=2)
  Normalized Luminescence Counts: -0.5726 and 3.382 and -2.55 and -8.508
hTA1 C96S; M = -11.522, single replicates, mutant block above C178S
  Normalized Luminescence Counts: -0.1784 and -0.1556 and -0.3377 and 0.3752 and 3.634 and 2.245
hTA1 C96S; M = -12, single replicates, mutant block above C178S
  Normalized Luminescence Counts: 0.04925 and -0.1556 and -0.3149 and 0.2684 and 2.352 and 1.711
hTA1 C96S; M = -12.522, single replicates, mutant block above C178S
  Normalized Luminescence Counts: -0.4515 and -0.588 and -0.5653 and 1.283 and 1.3903 and 1.07
hTA1 T194A; T149A (so in the source), single experiments (3 replicates each), β-PEA = 100
  Emax values, Mean: 107.638 and 114.006 and 104.682
hTA1 T194A; T194A
  increase in potency vs wild type: over 10 fold
hTA1 T194A; M = -7.522
  cAMP accumulation response, individual replicate values of the concentration-response curve: 49.8086 and 42.1239 and 66.6609 and 74.3619 and 75.9423 and 70.8058 and 84.4051 and 77.1239 and 72.2846
hTA1 T194A; M = -8
  cAMP accumulation response, individual replicate values of the concentration-response curve: 33.9 and 32.0125 and 38.7535 and 48.6794 and 43.1478 and 39.7894 and 64.0267 and 60.8745 and 66.5574
hTA1 T194A; M = -8.522
  cAMP accumulation response, individual replicate values of the concentration-response curve: 15.6995 and 22.1708 and 14.0817 and 16.28 and 19.441 and 18.4532 and 29.6632 and 30.1959 and 31.2615
hTA1 T194A; M = -9
  cAMP accumulation response, individual replicate values of the concentration-response curve: 1.409 and 7.206 and 6.936 and 8.575 and 6.7973 and 9.5631 and 13.5914 and 13.9909 and 14.0797
hTA1 T194A; M = -9.522
  cAMP accumulation response, individual replicate values of the concentration-response curve: 1.813 and 2.083 and -1.153 and 1.068 and 2.253 and 1.463 and 4.046 and 5.511 and 3.469
hTA1 T194A; M = -10
  cAMP accumulation response, individual replicate values of the concentration-response curve: -1.827 and -1.288 and -1.4224 and 2.056 (2×) and 1.661 and 1.693 and 1.604 and 1.782
hTA1 T194A; M = -10.522
  cAMP accumulation response, individual replicate values of the concentration-response curve: -1.827 and -0.7483 and -1.153 and 0.2779 and -0.3148 and -0.1172 and 1.027 and 0.8937 (2×)
hTA1 T194A; M = -11
  cAMP accumulation response, individual replicate values of the concentration-response curve: -0.4787 and -1.692 and -1.153 and 0.2779 and -1.105 and -1.303 and -0.971 and 0.4497 and 0.1834
hTA1 T194A; M = -11.522
  cAMP accumulation response, individual replicate values of the concentration-response curve: -1.557 and 0.8695 and -1.4224 and -1.105 (2×) and -0.7099 and 0.09457 and 0.05017 and 0.4053
hTA1 T194A; M = -12
  cAMP accumulation response, individual replicate values of the concentration-response curve: -0.7483 (2×) and -1.288 and -0.9074 (2×) and -0.3148 and -0.4826 and -0.1718 and -0.2162
hTA1 T194A; M = -12.522
  cAMP accumulation response, individual replicate values of the concentration-response curve: -0.07421 and 1.139 and 0.4651 and -1.105 (2×) and -0.5123 and -0.08302 and -0.2606 and 0.005772
hTA1 T194A; pEC50 values, Mean, T149A (so in the source), single experiments (3 replicates each)
  EC50: 8.01 nM and 26.8 nM and 14.3 nM
hTA1 T194A; pEC50 ± SEM, T194A
  EC50: 14.5 nM
hTA1 T194A; read-out: Span ± SEM (Emax normalized to β-PEA), T194A
  Emax: 109 ± 4.66%
